For 21 molecules, Ki results are on record in ChEMBL document CHEMBL1131205, “Rational design and synthesis of novel, potent bis-phenylamidine carboxylate factor Xa inhibitors” (J Med Chem, 1998).

For one experiment, the target named is Coagulation factor X (Homo sapiens, UniProt P00742). Kind of experiment: In vitro inhibition of Coagulation factor X.
In a further experiment the target is Prothrombin (Homo sapiens, UniProt P00734). The experiment can be described thus: In vitro inhibition of thrombin.
The next experiment addresses Serine protease 1 (Homo sapiens, UniProt P07477). Kind of experiment: In vitro inhibition of trypsin.

What is called Ki is a dissociation constant, usually derived from enzyme kinetics or from competition with a known ligand.

Coagulation factor X, sequence (P00742 41-179 limits assumed): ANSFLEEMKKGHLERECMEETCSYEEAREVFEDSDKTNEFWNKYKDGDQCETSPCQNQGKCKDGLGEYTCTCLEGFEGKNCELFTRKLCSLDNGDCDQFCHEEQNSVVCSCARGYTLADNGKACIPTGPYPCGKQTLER
Coagulation factor X, sequence (P00742 235-488 limits assumed): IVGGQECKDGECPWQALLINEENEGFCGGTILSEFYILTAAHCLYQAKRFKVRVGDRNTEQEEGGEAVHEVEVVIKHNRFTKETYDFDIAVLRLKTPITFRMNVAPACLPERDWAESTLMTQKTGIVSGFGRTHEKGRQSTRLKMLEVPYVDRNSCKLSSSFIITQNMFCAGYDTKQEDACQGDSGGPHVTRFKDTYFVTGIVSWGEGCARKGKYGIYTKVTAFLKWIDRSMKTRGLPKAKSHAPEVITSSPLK
Serine protease 1, sequence (P07477 whole entry): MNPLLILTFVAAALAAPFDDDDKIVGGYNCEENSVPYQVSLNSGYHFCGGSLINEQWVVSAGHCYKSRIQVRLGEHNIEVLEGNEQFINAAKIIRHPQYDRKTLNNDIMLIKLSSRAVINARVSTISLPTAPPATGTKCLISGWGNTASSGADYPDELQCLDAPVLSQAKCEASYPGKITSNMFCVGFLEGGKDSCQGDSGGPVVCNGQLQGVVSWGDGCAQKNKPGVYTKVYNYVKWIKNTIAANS

For `COC(=O)CNC(=O)CC(CCc1ccc(C(=N)N)cc1)c1cccc(C(=N)N)c1` (centres undefined), the Ki on Coagulation factor X was 2400 nM; at Prothrombin, 12600 nM.
Turning to `CCOC(=O)CC(CCc1ccc(C(=N)N)cc1)c1cccc(C(=N)N)c1` (centres undefined), the Ki is 110 nM on Serine protease 1, 42 nM at Coagulation factor X and 1100 nM on Prothrombin.
Turning to `COC(=O)CC(CCc1ccc(C(N)=O)cc1)c1cccc(C(=N)N)c1` (centres undefined), the inhibition constant (Ki) was 870 nM on Serine protease 1, 550 nM at Coagulation factor X and 6500 nM on Prothrombin.
The corresponding values for `COC(=O)CC(CCc1ccc(C(=O)OC)cc1)c1cccc(C(=N)N)c1` (centres undefined) are 330 nM, 2800 nM and 3600 nM.
On to `COC(=O)CC(CCc1ccc(N=C(N)N)cc1)c1cccc(C(=N)N)c1` (centres undefined), for which the values for the inhibition constant (Ki) at Serine protease 1, on Coagulation factor X and at Prothrombin were 96 nM, 9 nM and 3100 nM, respectively.
`COC(=O)CC(CCc1cccc(C(=N)N)c1)c1cccc(C(=N)N)c1` (centres undefined): the Ki on Coagulation factor X amounted to 2800 nM; on Prothrombin, 8500 nM.
As for `CNC(=O)CC(CCc1ccc(C(=N)N)cc1)c1cccc(C(=N)N)c1` (centres undefined), the inhibition constant Ki on Serine protease 1 came to 820 nM; on Coagulation factor X, 940 nM; at Prothrombin, 8000 nM.
On to `CCOC(=O)CC(CCc1ccc(C(=N)N)cc1)c1ccc(C(=N)N)cc1` (centres undefined), for which the inhibition constant (Ki) turned out to be 22900 nM at Coagulation factor X and 1200 nM on Prothrombin.
For the molecule `COC(=O)CC(CCc1ccc(C(=N)N)cc1)c1cccc(C(=N)N)c1` (centres undefined), the Ki was found to be 99 nM on Serine protease 1, 34 nM at Coagulation factor X and 1200 nM at Prothrombin.
Regarding `COC(=O)CC(CCc1ccc(N)cc1)c1cccc(C(=N)N)c1` (centres undefined), the Ki worked out at 1200 nM on Serine protease 1, 5000 nM on Coagulation factor X and 7700 nM on Prothrombin.
For the molecule `N=C(N)c1ccc(CCC(=O)c2cccc(C(=N)N)c2)cc1`, the inhibitory constant (Ki) at Coagulation factor X turned out to be 5100 nM; on Prothrombin it was 4400 nM.
With `N=C(N)c1ccc(CCC(CC(=O)N2CCCC2)c2cccc(C(=N)N)c2)cc1` (centres undefined), the values for the Ki at Serine protease 1, at Coagulation factor X and on Prothrombin were 440 nM, 1150 nM and 2800 nM, respectively.
On to `CCOC(=O)CC(CCc1cccc(C(=N)N)c1)c1ccc(C(=N)N)cc1` (centres undefined), for which the Ki at Coagulation factor X worked out at 1640 nM; on Prothrombin it was 3430 nM.
Regarding `CCOC(=O)CC(CCc1ccc(C(=N)N)cc1)c1ccccc1` (centres undefined), the Ki at Coagulation factor X was greater than 30000 nM; at Prothrombin it was 6200 nM.
Take `N=C(N)c1ccc(CCC(CC(=O)O)c2cccc(C(=N)N)c2)cc1` (centres undefined): the results for the Ki on Serine protease 1 and at Prothrombin were greater than 1200 nM and greater than 4200 nM, respectively.
Consider `CONC(=O)CC(CCc1ccc(C(=N)N)cc1)c1cccc(C(=N)N)c1` (centres undefined), for which the Ki on Coagulation factor X is 2400 nM; on Prothrombin, 19600 nM.
Consider `COC(=O)CC(CCc1ccc(NS(=O)(=O)c2ccccc2)cc1)c1cccc(C(=N)N)c1` (centres undefined), for which the Ki on Serine protease 1 is 610 nM; at Coagulation factor X it was 1100 nM; on Prothrombin, 1750 nM.
In the case of `COC(=O)CC(CCCCc1ccc(N=C(N)N)cc1)c1cccc(C(=N)N)c1` (centres undefined), the Ki at Serine protease 1 is 760 nM; on Coagulation factor X, 57 nM; at Prothrombin it was 3300 nM.
For `CCOC(=O)CC(CCc1ccccc1)c1cccc(C(=N)N)c1` (centres undefined), the results for the inhibitory constant (Ki) on Coagulation factor X and on Prothrombin were 2900 nM and greater than 2100 nM, respectively.
`COC(=O)CC(CCc1ccc(NS(C)(=O)=O)cc1)c1cccc(C(=N)N)c1` (centres undefined): the Ki on Serine protease 1 amounted to 110 nM; on Coagulation factor X, 654 nM; on Prothrombin, 3100 nM.
The like results for `CC(C)OC(=O)CC(CCc1ccc(C(=N)N)cc1)c1cccc(C(=N)N)c1` (centres undefined) were, in that order, 140 nM, 192 nM and 1540 nM.
